By melting point is commonly meant the temperature, or range, at which the solid turns liquid. A word on the IC50: it is the concentration that gives 50% inhibition. A low value points to inhibition by little substance.

This passage reports melting point and IC50 results from patent publication US6720342B2, “Heterocyclic compounds and their preparation and use” (Novo Nordisk A/S, priority 1996, dated 2004).

The target of series [1] is T1, muscarinic receptors (M1-site, pirenzepine sensitive site) (Rattus norvegicus, UniProt P08482).
T1 construct: Fresh cortex (0.1-1 g) from male Wistar rats (150-200 g) is homogenized; from tissue; host or cells: rat (male Wistar) cerebral cortex membranes
T1 sequence (P08482 1-460): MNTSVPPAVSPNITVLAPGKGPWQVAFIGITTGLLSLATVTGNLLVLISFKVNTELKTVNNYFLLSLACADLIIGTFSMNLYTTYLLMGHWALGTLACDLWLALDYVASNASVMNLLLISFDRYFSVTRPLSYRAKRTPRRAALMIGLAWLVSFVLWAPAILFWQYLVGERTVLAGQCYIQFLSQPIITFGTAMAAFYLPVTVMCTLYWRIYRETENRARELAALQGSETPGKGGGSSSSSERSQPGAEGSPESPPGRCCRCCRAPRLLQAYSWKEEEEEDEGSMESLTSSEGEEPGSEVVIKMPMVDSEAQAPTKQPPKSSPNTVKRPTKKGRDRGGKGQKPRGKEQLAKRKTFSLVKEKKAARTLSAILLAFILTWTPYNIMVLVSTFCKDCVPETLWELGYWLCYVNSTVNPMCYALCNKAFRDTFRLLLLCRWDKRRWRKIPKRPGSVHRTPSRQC
Nature of the series: Inhibition of 3H-PRZ (pirenzepine, [N-methyl-3H]) binding to rat cerebral cortex membranes. As to conditions: 1.0 nM 3H-Pirenzepine, 60 min at 20° C. As for the experimental part: Furthermore the pharmacological properties of the compounds of the invention can also be illustrated by determining their capability to inhibit ^3H-PRZ (pirenzepine, [N-methyl-^3H]) binding to rat cerebral cortex membranes. Pirenzepine binds selectively to subtype of muscarinic receptors. Historically the type is named the M1-site, whereas pirenzepine sensitive site would be more appropriate. Although selective for M1-sites pirenzepine also interact with M2-sites.
All preparations are performed at 0-4° C. unless otherwise indicated. Fresh cortex (0.1-1 g) from male Wistar rats (150-200 g) is homogenized for 5-10 s. in 10 ml 20 mM Hepes pH: 7.4, with an Ultra-Turrax homogenizer. The homogenizer is rinsed with 2×10 ml of buffer and the combined suspension centrifuged for 15 min at 40,000×g. The pellet is washed three times with buffer. In each step the pellet is homogenized as before in 3×10 ml of buffer and centrifuged for 10 min at 40,000×g.
The final pellet is homogenized in 20 mM Hepes pH: 7.4 (100 ml per g of original tissue) and used for binding assay. Aliquots of 0.5 ml is added 20 μl of test solution and 25 μl of ^3H-Pirenzepine (1.0 nM, final conc.), mixed and incubated for 60 min at 20° C. Non-specific binding is determined in triplicate using atropine (1 μg/ml, final conc.) as the test substance. After incubation samples are added 5 ml of ice-cold buffer and poured directly onto Whatman GF/C glass fiber filters under suction and immediately washed 2 times with 5 ml of ice-cold buffer. The amount of radioactivity on the filters are determined by conventional liquid scintillation counting. Specific binding is total binding minus non-specific binding.
Test substances are dissolved in 10 ml water, at a concentration of 0.22 mg/ml. 25-75% inhibition of specific binding must be obtained before calculation of IC50.
The test value will be given as IC50 (the concentration (nM) of the test substance which inhibits the specific binding of ^3H-PRZ by 50%).
(§1) IC50=(applied test substance concentration)×(Cx/Co−Cx)nM
(§2) where Co is specific binding in control assays and Cx is the specific binding in the test assay. (The calculations assume normal mass-action kinetics).

Series [2] concerns the target muscarinic acetylcholine receptors. Description: Inhibition of specific binding of 3H-Oxotremorine-M (3H-Oxo) to rat cortex membranes. As to conditions: rat cortex homogenate, 1.0 nM 3H-Oxotremorine, 30 min at 25° C.
Description: The pharmacological properties of the compounds of the invention can be illustrated by determining their capability to inhibit the specific binding of ^3H-Oxotremorine-M (^3H-Oxo). Birdsdall N. J. M., Hulme E. C., and Burgen A. S. V. (1980). “The Character of Muscarinic Receptors in Different Regions of the Rat Brain”. Proc. Roy. Soc. London (Series B) 207, 1.
^3H-Oxo labels muscarinic receptor in the CNS (with a preference for agonist domains of the receptors). Three different sites are labelled by ^3H-Oxo. […] Using the present experimental conditions only the high and medium affinity sites are determined.
The inhibitory effects of compounds on ^3H-Oxo binding reflects the affinity for muscarinic acetylcholine receptors.
All preparations are performed at 0-4° C. unless otherwise indicated. Fresh cortex (0.1-1 g) from male Wistar rats (150-250 g) is homogenized for 5-10 s in 10 ml 20 mM Hepes pH: 7.4, with an Ultra-Turrax homogenizer. The homogenizer is rinsed with 10 ml of buffer and the combined suspension centrifuged for 15 min. at 40,000×g. The pellet is washed three times with buffer. In each step the pellet is homogenized as before in 2×10 ml of buffer and centrifuged for 10 min. at 40,000×g.
The final pellet is homogenized in 20 mM Hepes pH: 7.4 (100 ml per g of original tissue) and used for binding assay. Aliquots of 0.5 ml is added 25 μl of test solution and 25 μl of ^3H-Oxotremorine (1.0 nM, final concentration) mixed and incubated for 30 min. at 25° C. Non-specific binding is determined in triplicate using arecoline (1 μg/ml, final concentration) as the test substance. After incubation samples are added 5 ml of ice-cold buffer and poured directly onto Whatman GF/C glass fiber filters under suction and immediately washed 2 times with 5 ml of ice-cold buffer. The amount of radioactivity on the filters are determined by conventional liquid scintillation counting. Specific binding is total binding minus non specific binding.
Test substances are dissolved in 10 ml water (if necessary heated on a steambath for less than 5 min.) at a concentration of 2.2 mg/ml. 25-75% inhibition of specific binding must be obtained before calculation of IC50.
The test value will be given as IC50 (the concentration (nM) of the test substance which inhibits the specific binding of ^3H-Oxo by 50%).
as §1, §2

Structures can show the parent of a compound that is named as a salt.

In the case of `CC(C)=CCOc1nsnc1OC1CN2CCC1C2` (stereo not drawn) (as salt: oxalate) [Compound 7, Endo 3-(3-[3-methyl-2-butenyl-1-oxy]-1,2,5-thiadiazol-4-yloxy)-1-azabicyclo[2.2.1]heptane, oxalate], the melting point is 112 to 115 °C.

The compound `N#CCCSc1nsnc1OC1CN2CCC1C2` (stereo not drawn) (as salt: oxalate) [Compound 32, Endo 3-(3-[2-cyanoethylthio]-1,2,5-thiadiazol-4-yloxy)-1-azabicyclo-[2.2.1]heptane, oxalate] yielded a melting point of 168 to 169 °C.

The compound `COc1cccc(C#CCOc2nsnc2OC2CN3CCC2C3)c1` (stereo not drawn) (as salt: oxalate) [Compound 6, Endo 3-(3-[3-(3-methoxyphenyl)-2-propynyl-1-oxy]-1,2,5-thiadiazol-4-yloxy)-1-azabicyclo[2.2.1]heptane, oxalate] registered a melting point of 142 to 143 °C.

Compound `C(CC1CC1)Oc1nsnc1OC1CN2CCC1C2` (stereo not drawn) (as salt: oxalate) [Compound 8, Endo 3-(3-[2-cyclopropylethyl-1-oxy]-1,2,5-thiadiazol-4-yloxy)-1-azabicyclo[2.2.1]heptane, oxalate] gave a melting point of 132 to 133 °C.

In the case of `COc1cccc(C#CC(Oc2nsnc2OC2CN3CCC2C3)C(C)C)c1` (stereo not drawn) (as salt: oxalate) [Compound 39, Endo 3-(3-[1-(3-methoxyphenyl)-4-methyl-1-pentyn-3-yloxy]-1,2,5-thiadiazol-4-yloxy)-1-azabicyclo[2.2.1]heptane, oxalate], the melting point fell in the range of 144 to 147 °C.

`C(#Cc1ccccc1)COc1nsnc1OC1CN2CCC1C2` (stereo not drawn) (as salt: oxalate) [Compound 5, Endo 3-(3-[3-phenyl-2-propynyl-1-oxy]-1,2,5-thiadiazol-4-yloxy)-1-azabicyclo[2.2.1]heptane, oxalate]: the melting point was 158 to 159 °C.

In the case of `FC(F)(F)CCCOc1nsnc1OC1CN2CCC1C2` (stereo not drawn) [Compound 15, Endo 3-(3-[4,4,4-trifluorobutyl-1-oxy]-1,2,5-thiadiazol-4-yloxy)-1-azabicyclo[2.2.1]heptane, oxalate], the IC50 was 14 nM in series [1] and 18 nM in series [2].

Take `CCCSc1nsnc1OC1CN2CCC1C2` (stereo not drawn) [Compound 2, Endo 3-(3-propylthio-1,2,5-thiadiazol-4-yloxy)-1-azabicyclo[2.2.1]heptane, oxalate]: the IC50 in series [1] was determined as 4.2 nM; in series [2], 1.4 nM.

Turning to `C(#Cc1ccccc1)COc1nsnc1OC1CN2CCC1C2` (stereo not drawn) [Compound 5, Endo 3-(3-[3-phenyl-2-propynyl-1-oxy]-1,2,5-thiadiazol-4-yloxy)-1-azabicyclo[2.2.1]heptane, oxalate], the IC50 in series [1] turned out to be 14 nM; in series [2], 10 nM.

Consider `FC(F)(F)COc1nsnc1OC1CN2CCC1C2` (stereo not drawn) [Compound 40, Endo 3-(3-[2,2,2-trifluoroethyl-1-oxy]-1,2,5-thiadiazol-4-yloxy)-1-azabicyclo[2.2.1]heptane, oxalate], for which the half-inhibitory concentration (IC50) in series [1] amounted to 43 nM; in series [2] it was 1.8 nM.

Take `CSCCOc1nsnc1OC1CN2CCC1C2` (stereo not drawn) [Compound 12, Endo 3-(3-methylthioethoxy-1,2,5-thiadiazol-4-yloxy)-1-azabicyclo-[2.2.1]heptane, oxalate]: the IC50 in series [1] stood at 29 nM; in series [2], 3.7 nM.

For `FC(F)(F)Oc1ccc(COc2nsnc2OC2CN3CCC2C3)cc1` (stereo not drawn) [Compound 14, Endo 3-(3-[4-trifluoromethoxybenzyloxy]-1,2,5-thiadiazol-4-yloxy)-1-azabicyclo[2.2.1]heptane, oxalate], the results for the IC50 in series [1] and in series [2] were 32 nM and 49 nM, respectively.

`CC(C)=CCOc1nsnc1OC1CN2CCC1C2` (stereo not drawn) [Compound 7, Endo 3-(3-[3-methyl-2-butenyl-1-oxy]-1,2,5-thiadiazol-4-yloxy)-1-azabicyclo[2.2.1]heptane, oxalate]: the IC50 in series [1] was determined as 24 nM; in series [2] it was 10 nM.

Take `COCCOc1nsnc1OC1CN2CCC1C2` (stereo not drawn) [Compound 13, Endo 3-(3-methoxyethoxy-1,2,5-thiadiazol-4-yloxy)-1-azabicyclo[2.2.1]heptane, oxalate]: the 50% inhibitory concentration (IC50) in series [1] worked out at 44 nM; in series [2], 4.3 nM.

On to `CC=CCOc1nsnc1OC1CN2CCC1C2` (stereo not drawn) [Compound 10, Endo 3-(3-[2-butenyl-1-oxy]-1,2,5-thiadiazol-4-yloxy)-1-azabicyclo[2.2.1]heptane, oxalate], for which the IC50 came out at 20 nM in series [1] and 5.3 nM in series [2].

`CC(C#Cc1ccc(F)cc1)=CCOc1nsnc1OC1CN2CCC1C2` (stereo not drawn) [Compound 21, Endo (Z)-3-(3-(5-(4-fluorophenyl)-3-methyl-2-penten-4-yn-1-yloxy)-1,2,5-thiadiazol-4-yloxy)-1-azabicyclo[2.2.1]heptane]: the figures for the IC50 in series [1] and in series [2] were 100 nM and 302 nM, respectively.

Turning to `N#CCCSc1nsnc1OC1CN2CCC1C2` (stereo not drawn) [Compound 32, Endo 3-(3-[2-cyanoethylthio]-1,2,5-thiadiazol-4-yloxy)-1-azabicyclo-[2.2.1]heptane, oxalate], the figures for the IC50 in series [1] and in series [2] were 34 nM and 3.1 nM, respectively.

In the case of `CCC(C#Cc1cccc(OC)c1)Oc1nsnc1OC1CN2CCC1C2` (stereo not drawn) [Compound 19, Endo 3-(3-[1-(3-methoxyphenyl)-1-pentyn-3-yloxy]-1,2,5-thiadiazol-4-yloxy)-1-azabicyclo[2.2.1]heptane, oxalate], the IC50 in series [1] amounted to 53 nM; in series [2], 126 nM.

Turning to `C(#Cc1ccccn1)COc1nsnc1OC1CN2CCC1C2` (stereo not drawn) [Compound 25, Endo 3-(3-(2-pyridyl)-2-propyn-1-yloxy)-1,2,5-thiadiazol-4-yloxy)-1-azabicyclo[2.2.1]heptane, dioxalate], the IC50 amounted to 4.5 nM in series [1] and 1.7 nM in series [2].

Regarding `C(#Cc1cccnc1)COc1nsnc1OC1CN2CCC1C2` (stereo not drawn) [Compound 23, Endo 3-(3-(3-pyridyl)-2-propyn-1-yloxy)-1,2,5-thiadiazol-4-yloxy)-1-azabicyclo[2.2.1]heptane, dioxalate], the concentration for half-maximal inhibition (IC50) was 13 nM in series [1] and 1.6 nM in series [2].

In the case of `Fc1ccc(COc2nsnc2OC2CN3CCC2C3)cc1` (stereo not drawn) [Compound 9, Endo 3-(3-[4-fluorobenzyloxy]-1,2,5-thiadiazol-4-yloxy)-1-azabicyclo-[2.2.1]heptane, oxalate], the values for the IC50 in series [1] and in series [2] were 30 nM and 25 nM, respectively.
